From patent publication US20230027601A1, “METHOD FOR MANUFACTURING REVAUDIOSIDE-D-CONTAINING CRYSTALLIZED PRODUCT, AND REVAUDIOSIDE-D-CONTAINING CRYSTALLIZED PRODUCT” (SUNTORY HOLDINGS LIMITED, priority 2019, published 2023)

Assay: saturated solubility of RebA and RebD in ethanol solvent (excess loading, 24 h stirring, filtrate measured with LCMS)
Type: physicochemical
Conditions: for saturated solubility: 90% by mass of EtOH, 10° C., values used in calculation of the degree of supersaturation; for saturated dissolution concentration: 90% ethanol solvent at 10° C., according to FIG. 1
Protocol: The saturated solubility is herein measured according to the following method. That is, 100 ml of a solvent having a predetermined methanol or ethanol concentration (w/w) is placed in a container (having a volume of 100 ml or 200 ml, suitably 200 ml), the liquid temperature is set to 10° C. by a water bath in advance, and then the solvent is stirred at 200 rpm, and a target substance is loaded in an excessive amount (amount until suspension is made). After 24 hours, a filtrate is obtained by a 0.45-um membrane filter, and the amount of the target substance (RebA or RebD) included in the filtrate is measured with LCMS. LCMS here used is suitably LCMS 8050 manufactured by Shimadzu Corporation.
Specifically, 100 ml of a solvent having a predetermined ethanol concentration (w/w) was placed in a […] glass container (separable round-bottomed flask, Tokyo Rikakikai Co., Ltd.), set to a predetermined temperature by a water bath (PCC-7000, Tokyo Rikakikai Co., Ltd.) in advance, and then stirred (SPZ-100, Tokyo Rikakikai Co., Ltd.) at 200 rpm, and RebA (J-100, Morita Kagaku Kogyo Co., Ltd.) or RebD (Jining Renewal & Joint International, China) was loaded in an excessive amount (amount until suspension was achieved). After 24 hours, a filtrate was obtained by a 0.45-um membrane filter, the amount of RebA or RebD included in the filtrate was measured with LCMS (LCMS 8050 manufactured by Shimadzu Corporation), and the solubility curve was created. The results are illustrated in FIG. 1.

SMILES | saturated solubility | saturated dissolution concentration
C=C1C[C@@]23CC[C@H]4[C@@](C)(CCC[C@@]4(C)C(=O)O[C@@H]4O[C@H](CO)[C@@H](O)[C@H](O)[C@H]4O[C@@H]4O[C@H](CO)[C@@H](O)[C@H](O)[C@H]4O)[C@@H]2CC[C@]1(O[C@@H]1O[C@H](CO)[C@@H](O)[C@H](O[C@@H]2O[C@H](CO)[C@@H](O)[C@H](O)[C@H]2O)[C@H]1O[C@@H]1O[C@H](CO)[C@@H](O)[C@H](O)[C@H]1O)C3 [RebD, rebaudioside D] | 99.33 ppm | 99.3 ppm
C=C1C[C@@]23CC[C@H]4[C@@](C)(CCC[C@@]4(C)C(=O)O[C@@H]4O[C@H](CO)[C@@H](O)[C@H](O)[C@H]4O)[C@@H]2CC[C@]1(O[C@@H]1O[C@H](CO)[C@@H](O)[C@H](O[C@@H]2O[C@H](CO)[C@@H](O)[C@H](O)[C@H]2O)[C@H]1O[C@@H]1O[C@H](CO)[C@@H](O)[C@H](O)[C@H]1O)C3 [RebA, rebaudioside A] | 8270.5 ppm | 8,250 ppm
